# Test results published in PMC10813319 (Biomedicines, 2024).
# Like-named read-outs stand apart in the source and are kept apart here. Square brackets hold non-standard residues; d marks the D form. Peptide text beside a SMILES is read from it.
# Experiments:
# [1] = tested on: pre-formed Aβd/t-induced cofilactin rods in Day 55 human neurons; conditions: AMD3100 30 nM for 24 h in the continued presence of Aβd/t; cited from earlier work
# [2] = tested on: pre-formed Aβd/t-induced cofilin-mRFP rods in E18 rat neurons
# [3] = tested on: Aβd/t-induced cofilactin rods in Day 55 human iPSC-derived glutamatergic neurons; assay: cells; conditions: Neuron, read-out: EC50 for inhibition of Aβd/t-induced rods, human neurons
# Method: (§1) The predominantly dimer/trimer fraction of a secreted human amyloid-β (Aβd/t) was derived from a Chinese hamster ovary-cell line (7PA2) [62]. Medium from these cells collected after overnight incubation was concentrated 10-fold on Amicon Ultra 15 mL, 3K cut-off spin filters (Sigma-Aldrich), and the concentrate fractionated on a Superdex-75 Increase (Sigma-Aldrich) gel filtration column equilibrated in 50 mM ammonium acetate buffer [20, 24]. The fractions containing Aβd/t were identified by Western blots using an Aβ antibody (6E10; 1:1000) (Covance, Princeton, NJ, USA). Fractions were freeze-dried, resolubilized in 1 mL of sterile water, and freeze-dried a second time for storage. The Aβd/t fraction was reconstituted to 1X (concentration in 7PA2 culture medium, assuming full recovery of the dimer/trimer fraction) in neuronal culture medium prior to addition to neuronal cultures. Quantification of the total Aβd/t pool was determined to be about 1 nM (monomer equivalent) by comparison on immunoblots to a standard curve using synthetic Aβ [20].
# (§2) Human neurons were derived from iPSC WTC-11 cells, in which a doxycycline-regulated promoter drives the expression of the Ngn2 transcription factor for glutamatergic neuronal differentiation [67, 68]. […] Differentiated neurons were plated at 60,000 per well and cultured for 55 days in glial-conditioned complete homemade neurobasal medium (hNB) either on poly-D-lysine/Matrigel (Corning Life Sciences, Tewksbury, MA, USA) coated glass bottom 24-well plates (Cellvis, Mountain View, CA, USA) or on similarly coated 12 mm German glass coverslips placed in plastic 24-well plates.
# (§3) Cultured neurons were exposed to inhibitors and/or Aβd/t for 20–24 h prior to fixation for 30 min with 4% formaldehyde ± 0.1% glutaraldehyde in cytoskeletal buffer [72], washed 3 times with PBS, and permeabilized with −20 °C methanol (3 min while warming to RT). Methanol permeabilization without the use of non-ionic detergents is critical for optimal observation of rods [13]. After removing the methanol, neurons were washed twice in PBS, twice in Tris Buffered Saline (TBS: 10 mM Tris, pH 7.5, 150 mM NaCl), and incubated for 1 h at RT with blocking buffer (2–5% goat or donkey serum, 1% bovine serum albumin (BSA) in TBS). Primary antibodies (rabbit 1439 anti-cofilin, mouse anti-neurofilament, and chicken anti-MAP2) were diluted in 1% BSA in TBS and incubated overnight on cells at 4 °C. After 3–5 washes with TBS, secondary fluorescent-labeled antibodies (goat anti-rabbit Alexa 488 or 647, goat anti-mouse Alexa 564, or goat anti-chicken Alexa 488 or 564) ± DAPI (1:500 of 1 mg/mL) were added for 1 h at RT in 1% BSA/TBS. After 3–5 TBS washes, coverslips were mounted onto glass slides with Prolong Diamond Antifade ± DAPI (Thermo-Fisher) and air dried overnight in the dark.
# (§4) Stitched images of fixed neurons immunolabeled for cofilin and nuclei (DAPI), as well as either NF-H or MAP2, were exported as tiff files to Metamorph (version 7.8, Molecular Devices, San Jose, CA, USA) or ImageJ (Version 1.53e; Java 1.8.0_172; ImageJ.org). In some cases, macro functions were applied to set local thresholds and shape/size segmentation for cofilin rods.
# [4] = tested on: Aβd/t-induced cofilactin rods in Day 55 human iPSC-derived glutamatergic neurons
# Method: as §1, §2, §3, §4
# [5] = tested on: dual tropic gp120MN-induced cofilactin rods in Day 55 human neurons
# [6] = tested on: IL-6-induced cofilactin rods in Day 55 human neurons
# [7] = tested on: pre-formed Aβd/t-induced cofilactin rods in Day 55 human neurons
# [8] = tested on: glutamate-induced cofilactin rods in 6 DIV rat hippocampal neurons
# [9] = tested on: Aβd/t-induced cofilactin rods in 6 DIV rat hippocampal neurons
# [10] = read-out: Human Neuron EC50, inhibition of Aβd/t-induced rods, Day 55 human neurons treated 24 h with Aβd/t plus peptide, Table 1
compound,measurement,setting,value
c1cc(CN2CCCNCCNCCCNCC2)ccc1CN1CCCNCCNCCCNCC1 [AMD3100],Reversal of Aβd/t-induced rods in human neurons,[1],reversed
same,Reversal of rods induced by and in the continued presence of Aβd/t,"[2]; AMD3100 50 nM, RAP-103 0.1 nM, live imaging over 2.5 h, n = 3",reversed rods
same,EC50,[3],2 to 3 nM
C[C@H](O)[C@@H](NC(=O)[C@@H](CO)NC(=O)[C@H](N)CO)C(=O)N[C@H](Cc1ccc(O)cc1)C(=O)N[C@H](CCCNC(=N)N)C(=O)O [Peptide 2] (H-[dS][dS][dT][dY][dR]-OH; N-terminus and C-terminus assumed),EC50,[4]; [10],~1 nM
C[C@H](O)[C@@H](NC(=O)[C@@H](Cc1ccc(O)cc1)NC(=O)[C@@H](CC(N)=O)NC(=O)[C@H](NC(=O)[C@H](N)CO)[C@H](C)O)C(=O)O [Peptide 3] (H-[dS][dT][dN][dY][dT]-OH),EC50,[4]; [10],~1.5 nM
CN[C@@H](C(=O)N[C@@H](C(=O)N[C@H](CC(N)=O)C(=O)N[C@H](Cc1ccc(O)cc1)C(=O)N[C@@H](C(=O)O)[C@H](C)O)[C@H](C)O)[C@H](C)O [Peptide 6],EC50,[4]; [10],> 1 nM
C[C@H](O)[C@@H](N)C(=O)N[C@@H](C(=O)N[C@H](CC(N)=O)C(=O)N[C@H](Cc1ccc(O)cc1)C(=O)N[C@@H](C(=O)O)[C@H](C)O)[C@H](C)O [RAP-103],Inhibition of gp120MN-induced rod formation,[5],completely inhibited
same,Adjusted time of 50% loss of rod area,[2],about 200 min
same,Extrapolated time to 50% decrease in rod size,[2],~ 3 h
same,Rate of rod reversal relative to AMD3100,[2],2 fold
same,Reversal of rods induced by and in the continued presence of Aβd/t,[2],reversed rods
same,EC50,[6],~0.0001 nM
same,Time to 50% rod reversal in human neurons,[7],~ 3 h
C[C@H](O)[C@@H](NC(=O)[C@@H](Cc1ccc(O)cc1)NC(=O)[C@@H](CC(N)=O)NC(=O)[C@H](NC(=O)[C@H](NC(=O)[C@H](NC(=O)[C@@H](CO)NC(=O)[C@@H](C)N)[C@H](C)O)[C@H](C)O)[C@H](C)O)C(N)=O [RAP-310],Inhibition of glutamate-induced rods,[8],did not inhibit
same,"Inhibition of Aβd/t-induced rods, rat neurons",[9],fully inhibited
Maraviroc [reference compound],EC50,"[4]; read-out: EC50 for inhibition of Aβd/t-induced rods, human neurons, Day 55 human iPSC-derived neurons, <1 nM to 100 nM, approximate, estimated from semi-log plots (Figure S2C,D), n = 2",8 to 9 nM
